Among the test systems are NCI-H226; NCI/ADR-RES; MDA-MB-231; SW-620; SF-268; OVCAR-4; IGROV-1; T47D; U-251; MDA-MB-435; SN12C; PC-3; SF-539; OVCAR-3; HCC 2998; SR; RXF 393; HCT-15; HCT-116; TK-10.
What all share (test): growth of human tumour cells (NCI), 48 h

The structures appear in SMILES notation.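 Where inhibition never reached the appropriate level, the endpoint shown equals the highest concentration tested. Otherwise, values were interpolated linearly from a five-concentration, 48-hour dose response in 96-well plates. The concentration for 50% growth inhibition is given as GI50.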 The source made the active and inactive calls. Cut-off read from the data, not from the text of the source: active = GI50 up to about 1.1 µM and inactive = higher. Where only a bound is given, the exact number is not on record here.

The values below come from ChEMBL document CHEMBL1201862, “PubChem BioAssay data set” (2004).

Turning to `O=C(O)c1cccc(CC(Br)C(=O)O)c1` (stereo not drawn), the GI50 with NCI-H226, in the assay with NCI/ADR-RES, in the assay with MDA-MB-231, with SW-620, with SF-268 and in the assay on OVCAR-4 was > 100 µM (inactive) in each case. Also, the GI50 with IGROV-1, in the assay on T47D, in the assay with U-251, in the assay with MDA-MB-435, with SN12C and in the assay on PC-3 was > 100 µM (inactive) throughout. The GI50 is > 100 µM (inactive) in the assay with SF-539; > 100 µM (inactive) with OVCAR-3; > 100 µM (inactive) in the assay with HCC 2998; > 100 µM (inactive) with SR; > 100 µM (inactive) in the assay with RXF 393; above 100 µM with HCT-15. Moreover, the GI50 in the assay on HCT-116 and with TK-10 was > 100 µM (inactive) throughout.
On to `COC(=O)[C@@H]1[C@@H]2NC(=S)N[C@@]1(C)Oc1ccccc12`, for which the GI50 in the assay on NCI-H226 is 91.4 µM (inactive); with NCI/ADR-RES it was 30.2 µM (inactive); with MDA-MB-231 it was 74.6 µM (inactive); in the assay on SW-620, 55.7 µM (inactive); with SF-268, 39 µM (inactive); in the assay with OVCAR-4, > 100 µM (inactive). Further, the GI50 was 49 µM (inactive) in the assay with IGROV-1; > 100 µM (inactive) with T47D; 38.3 µM (inactive) in the assay on U-251; 10.1 µM (inactive) in the assay with MDA-MB-435; 46.2 µM (inactive) in the assay on SN12C; 63.5 µM (inactive) in the assay with PC-3. Also, the GI50 with SF-539 is 37.7 µM (inactive); with OVCAR-3 it was > 100 µM (inactive); in the assay with HCC 2998 it was 41.6 µM (inactive); in the assay on SR, 95.3 µM (inactive); in the assay on RXF 393, > 100 µM (inactive); in the assay with HCT-15, 32.1 µM. Besides, the results for the GI50 in the assay with HCT-116 and in the assay on TK-10 were 67.6 µM (inactive) and > 100 µM (inactive), respectively.
As for `O=C1NC(=O)C(c2c[nH]c3ccccc23)=C1c1cn(C(c2ccccc2)(c2ccccc2)c2ccccc2)cn1`, the GI50 with NCI-H226 is 5.87 µM (inactive); in the assay with NCI/ADR-RES, 4.29 µM (inactive); in the assay with MDA-MB-231 it was 12.8 µM (inactive); in the assay with SW-620, 8.81 µM (inactive); in the assay on SF-268, 11.7 µM (inactive); with OVCAR-4 it was 4.06 µM (inactive). Besides, the GI50 in the assay on IGROV-1 is 8.87 µM (inactive); in the assay on T47D, 7.19 µM (inactive); in the assay with U-251, 4.25 µM (inactive); in the assay on MDA-MB-435, 3.92 µM (inactive); with SN12C it was 5.7 µM (inactive); in the assay with PC-3 it was 2.58 µM (inactive). Moreover, the GI50 with SF-539 is 15.4 µM (inactive); in the assay with OVCAR-3 it was 6.76 µM (inactive); in the assay with HCC 2998, 4.63 µM (inactive); with SR, 2.7 µM (inactive); in the assay on RXF 393 it was 4.52 µM (inactive); in the assay with HCT-15, 3.66 µM. In addition, the values for the GI50 with HCT-116 and in the assay with TK-10 were 3.34 µM (inactive) and 10.7 µM (inactive), respectively.
Turning to `CCn1c2ccc(C(=O)CCCN3CCCCC3)cc2c2cc(C(=O)CCCN3CCCCC3)ccc21`, the GI50 in the assay on NCI-H226 was 11.9 µM (inactive); in the assay with NCI/ADR-RES, 3.78 µM (inactive); in the assay on MDA-MB-231, 1.83 µM (inactive); in the assay on SW-620, 1.01 µM (active); with SF-268, 4.94 µM (inactive); with OVCAR-4, 1.33 µM (inactive). Further, the GI50 in the assay on IGROV-1 was 2.08 µM (inactive); in the assay on T47D it was 24.2 µM (inactive); in the assay on U-251, 2.13 µM (inactive); in the assay with MDA-MB-435 it was 1.72 µM (inactive); with SN12C, 4.16 µM (inactive); in the assay on PC-3, 2.13 µM (inactive). In addition, the GI50 is 1.77 µM (inactive) in the assay on SF-539; 2.11 µM (inactive) with OVCAR-3; 5.94 µM (inactive) in the assay with HCC 2998; 2.45 µM (inactive) in the assay on SR; 2.63 µM (inactive) with RXF 393; 1.86 µM with HCT-15. In addition, the figures for the GI50 with HCT-116 and with TK-10 were 1.78 µM (inactive) and 2.91 µM (inactive), respectively.
Take `CC(C)OP(=O)(OC(C)C)C(C)(C)O`: the GI50 in the assay on NCI-H226, in the assay on NCI/ADR-RES, with MDA-MB-231, with SW-620, in the assay on SF-268 and with OVCAR-4 was > 100 µM (inactive) each time. The GI50 in the assay with IGROV-1, with T47D, with U-251, in the assay with MDA-MB-435, with SN12C and with PC-3 was > 100 µM (inactive) each time. Besides, the GI50 in the assay on SF-539 was > 100 µM (inactive); in the assay with OVCAR-3, > 100 µM (inactive); with HCC 2998 it was > 100 µM (inactive); in the assay on SR it was > 100 µM (inactive); in the assay with RXF 393, > 100 µM (inactive); in the assay on HCT-15 it was above 100 µM. For the same compound, the GI50 with HCT-116 and with TK-10 was > 100 µM (inactive) in each case.
As for `OC(CC(CC(O)(C(F)(F)F)C(F)(F)F)=NN=C(CC(O)(C(F)(F)F)C(F)(F)F)CC(O)(C(F)(F)F)C(F)(F)F)(C(F)(F)F)C(F)(F)F`, the GI50 in the assay with NCI-H226, in the assay with NCI/ADR-RES, with MDA-MB-231, in the assay on SW-620, in the assay on SF-268 and with OVCAR-4 was > 10 µM (inactive) each time. Further, the GI50 with IGROV-1, with T47D, with U-251, with MDA-MB-435, with SN12C and with PC-3 was > 10 µM (inactive) in each case. Also, the GI50 in the assay on SF-539 was > 10 µM (inactive); in the assay with OVCAR-3 it was > 10 µM (inactive); with HCC 2998, > 10 µM (inactive); in the assay on SR, > 10 µM (inactive); in the assay with RXF 393 it was > 10 µM (inactive); in the assay on HCT-15 it was above 10 µM. For the same compound, the GI50 in the assay with HCT-116 and in the assay on TK-10 was > 10 µM (inactive) throughout.
For `COC12C(COC(=O)NCCO)C3=C(C(=O)C(C)=C(N)C3=O)N1CC1NC12` (stereo not drawn), the GI50 in the assay on NCI-H226 is 16.9 µM (inactive); with NCI/ADR-RES, > 264 µM (inactive); in the assay with MDA-MB-231, 233 µM (inactive); with SW-620, 16.7 µM (inactive); with SF-268 it was 11.6 µM (inactive); with OVCAR-4 it was 65.8 µM (inactive). Further, the GI50 was 29.2 µM (inactive) in the assay with IGROV-1; 60.3 µM (inactive) with T47D; 4.05 µM (inactive) with U-251; 140 µM (inactive) in the assay on MDA-MB-435; 7.94 µM (inactive) with SN12C; 35.2 µM (inactive) with PC-3. For the same compound, the GI50 with SF-539 is 7.83 µM (inactive); in the assay on OVCAR-3, 68.7 µM (inactive); in the assay with HCC 2998, 34.8 µM (inactive); in the assay on SR, 35.2 µM (inactive); in the assay on RXF 393, 24 µM (inactive); in the assay with HCT-15, 170 µM. The results for the GI50 in the assay with HCT-116 and in the assay on TK-10 were 18.9 µM (inactive) and 83.2 µM (inactive), respectively.
For the compound `O=c1[nH]nc(-c2ccccc2)n1/N=C/c1ccc([N+](=O)[O-])o1`, the GI50 was 9.44 µM (inactive) with NCI-H226; 5.85 µM (inactive) in the assay with NCI/ADR-RES; 6.71 µM (inactive) in the assay with MDA-MB-231; 2.49 µM (inactive) in the assay with SW-620; 5.57 µM (inactive) in the assay on SF-268; 6.65 µM (inactive) in the assay with OVCAR-4. Moreover, the GI50 in the assay on IGROV-1 is 2.57 µM (inactive); in the assay with T47D it was 13.7 µM (inactive); with U-251, 6.5 µM (inactive); in the assay on MDA-MB-435, 5.2 µM (inactive); in the assay on SN12C, 4.37 µM (inactive); in the assay on PC-3, 6.35 µM (inactive). Further, the GI50 was 4.65 µM (inactive) in the assay on SF-539; 0.993 µM (active) in the assay on OVCAR-3; 5.26 µM (inactive) in the assay with HCC 2998; 1.08 µM (active) in the assay on SR; 0.897 µM (active) in the assay on RXF 393; 2.21 µM with HCT-15. The GI50 is 1.37 µM (inactive) in the assay with HCT-116 and 52.8 µM (inactive) with TK-10.
Regarding `O=C(NNc1ccnc2cc(Cl)ccc12)/C(=C\c1ccccc1Cl)NC(=O)c1ccccc1`, the GI50 with NCI-H226 was 23.2 µM (inactive); in the assay with NCI/ADR-RES, 24.9 µM (inactive); with MDA-MB-231, 74 µM (inactive); in the assay on SW-620, 37.9 µM (inactive); in the assay with SF-268, 27.4 µM (inactive); in the assay on OVCAR-4, 32.8 µM (inactive). For the same compound, the GI50 in the assay with IGROV-1 was 12.5 µM (inactive); in the assay on T47D, 32.2 µM (inactive); in the assay on U-251, 17.3 µM (inactive); in the assay with MDA-MB-435 it was 38.6 µM (inactive); with SN12C, 38.1 µM (inactive); in the assay with PC-3, 36.1 µM (inactive). In addition, the GI50 in the assay with SF-539 is 27.7 µM (inactive); with OVCAR-3 it was 16.5 µM (inactive); in the assay with HCC 2998, 60 µM (inactive); in the assay with SR it was 35 µM (inactive); with RXF 393, 27.2 µM (inactive); with HCT-15 it was 48.4 µM. In addition, the GI50 in the assay with HCT-116 was 42.7 µM (inactive); with TK-10 it was 66.1 µM (inactive).
As for `COc1ccc2c(-c3ccc(O)cc3)c(Oc3ccccc3)c(=O)oc2c1`, the GI50 in the assay with NCI-H226 is 29.9 µM (inactive); with NCI/ADR-RES, 14.2 µM (inactive); in the assay with MDA-MB-231, 18.8 µM (inactive); in the assay on SF-268, > 32.9 µM (inactive); with OVCAR-4 it was 9.62 µM (inactive); with IGROV-1, 3.78 µM (inactive). Further, the GI50 in the assay with T47D is > 28 µM (inactive); in the assay on U-251 it was > 22.9 µM (inactive); in the assay with MDA-MB-435, > 100 µM (inactive); in the assay on PC-3, > 66.5 µM (inactive); in the assay on SF-539 it was 24.7 µM (inactive); in the assay with OVCAR-3 it was 5.4 µM (inactive). Moreover, the GI50 in the assay on HCC 2998 is 18.3 µM (inactive); in the assay on SR, 3.24 µM (inactive); in the assay on RXF 393, 11.8 µM (inactive); in the assay with HCT-15, 5.04 µM; in the assay with HCT-116, > 23.2 µM (inactive); with TK-10, 3.74 µM (inactive).
